In patent publication US11433055B2, “Chromane monobactam compounds for the treatment of bacterial infections” (priority 2017, dated 2022):
Where a name gives a salt, the structure may show the parent alone. Read-outs that look alike come from different tables or passages of the source.

Experiments:
Assay type in all cases: cell-based
Conditions in all cases: lowest concentration inhibiting 95% of bacterial growth, in the presence of β lactamase inhibitor (BLi, Relebactam), 22 hours, 35±2° C., OD600
[1] = tested on: Klebsiella pneumoniae expressing KPC-1 (CL6569)
Procedure: (§1) Antibiotic Activity: Determination of Growth Inhibitory Concentration
(§2) The concentrations of compounds required to inhibit the growth of various strains of bacteria were determined in an assay that assessed bacterial growth by measuring optical density at 600 nm (OD600). The bacterial strains tested included the clinical strains Escherichia coli expressing NDM-1 (CLB30016), Klebsiella pneumoniae expressing KPC-1 (CL6569), Acinetobacter baumannii expressing TEM-1, AmpC, and Oxa-24/40 (CL6188) and Pseudomonas aeruginosa expressing AmpC (CL5701). All compounds were tested in the presence of a β lactamase inhibitor (BLi, Relebactam) in 384-well microplates. The clinical strains were stored as frozen single use stocks, thawed and diluted into 1.1× cation-adjusted Mueller-Hinton II broth to achieve approximately 2×10^5 CFU/mL. Test compounds were dissolved in DMSO and diluted 1:50 in the assay, resulting in a final concentration range of 100 μM to 0.098 μM. On the day of the assay, 1 μL of test compound was added to the plate followed by 4 μL of 50 μg/mL BLi in MOPS buffer and 45 μL of diluted bacteria. Plates were centrifuged at 1000 rpm for 30 seconds, shaken at approximately 800 rpm for 1 minute, and incubated at 35±2° C. for 22 hours. The concentration of BLi used in the assay was […]. At the end of the incubation, absorbance at 600 nm was determined using a spectrophotometer. Inhibition was quantitated by identifying the lowest concentration of test compound that was required to inhibit 95% of the growth of the bacteria. The results for Examples 1-39 are reported in Table I, expressed as the concentration of compound that inhibited 95% of bacterial growth (Minimum Inhibitory Threshold Concentration; MITC95).

[2] = tested on: Acinetobacter baumannii expressing TEM-1, AmpC, and Oxa-24/40 (CL6188)
Procedure: as §1, §2

[3] = tested on: Pseudomonas aeruginosa expressing AmpC (CL5701)
Procedure: as §1, §2

[4] = tested on: Escherichia coli expressing NDM-1 (CLB30016)
Procedure: as §1, §2

Structure (SMILES) | KP_CL6569 MITC95 [1] | AB_CL6188 MITC95 [2] | PA_CL5701 MITC95 [3] | EC_CLB30016 MITC95 [4] | KP_CL6569 MITC95 ([1]; sulfate formate) | AB_CL6188 MITC95 ([2]; sulfate formate) | PA_CL5701 MITC95 ([3]; sulfate formate) | EC_CLB30016 MITC95 ([4]; sulfate formate)
C[n+]1cc(-c2ccc3c(c2)CC[C@H]([C@](C)(O/N=C(\C(=O)N[C@@H]2C(=O)N(OS(=O)(=O)[O-])C2(C)C)c2csc(N)n2)C(=O)O)O3)cnc1N(CCN)CC1CNC1.O=CO [Example 15, (S)-3-((Z)-2-(((S)-1-((R)-6-(2-((2-aminoethyl)(azetidin-1-ium-3-ylmethyl)amino)-1-methylpyrimidin-1-ium-5-yl)chroman-2-yl)-1-carboxyethoxy)imino)-2-(2-aminothiazol-4-yl)acetamido)-2,2-dimethyl-4-oxoazetidin-1-yl sulfate formate] | 0.3906 µM | 3.125 µM | 6.25 µM | 6.25 µM |  |  |  | 
C[n+]1cc(-c2ccc3c(c2)CC[C@H]([C@](C)(O/N=C(\C(=O)N[C@@H]2C(=O)N(OS(=O)(=O)[O-])C2(C)C)c2csc(N)n2)C(=O)O)O3)ccc1NC(CN)CN.O=CO [Example 23B, (3S)-3-((Z)-2-(((1S)-1-((2R)-6-(6-((1-amino-3-ammoniopropan-2-yl)amino)-1-methylpyridin-1-ium-3-yl)chroman-2-yl)-1-carboxyethoxy)imino)-2-(2-aminothiazol-4-yl)acetamido)-2,2-dimethyl-4-oxoazetidin-1-yl sulfate formate] |  |  |  |  | 3.125 µM | 12.5 µM | 25 µM | 100 µM
CC1(C)[C@H](NC(=O)/C(=N\O[C@](C)(C(=O)O)[C@H]2CCc3cc(-c4ccc(NCCCN)[n+](CCCN)c4)ccc3O2)c2csc(N)n2)C(=O)N1OS(=O)(=O)[O-].O=CO [Example 21, (S)-3-((Z)-2-(((S)-1-((R)-6-(1-(3-aminopropyl)-6-((3-ammoniopropyl)amino)pyridin-1-ium-3-yl)chroman-2-yl)-1-carboxyethoxy)imino)-2-(2-aminothiazol-4-yl)acetamido)-2,2-dimethyl-4-oxoazetidin-1-yl sulfate formate] | 0.3906 µM | 3.125 µM | 12.5 µM | 6.25 µM |  |  |  | 
C[n+]1cc(-c2ccc3c(c2)CC[C@H]([C@](C)(O/N=C(\C(=O)N[C@@H]2C(=O)N(OS(=O)(=O)[O-])C2(C)C)c2csc(N)n2)C(=O)O)O3)cn1C[C@H](O)CN [Example 7, (S)-3-((Z)-2-(((S)-1-((R)-6-(1-((R)-3-amino-2-hydroxypropyl)-2-methyl-1H-pyrazol-2-ium-4-yl)chroman-2-yl)-1-carboxyethoxy)imino)-2-(2-aminothiazol-4-yl)acetamido)-2,2-dimethyl-4-oxoazetidin-1-yl sulfate] | 1.563 µM | 25 µM | 12.5 µM | 25 µM |  |  |  | 
CC1(C)[C@H](NC(=O)/C(=N\O[C@](C)(C(=O)O)[C@H]2CCc3cc(-c4ccc(NCCCN)[n+](CC5CNC5)c4)ccc3O2)c2csc(N)n2)C(=O)N1OS(=O)(=O)[O-].O=CO [Example 22, (S)-3-((Z)-2-(((S)-1-((R)-6-(6-((3-aminopropyl)amino)-1-(azetidin-1-ium-3-ylmethyl)pyridin-1-ium-3-yl)chroman-2-yl)-1-carboxyethoxy)imino)-2-(2-aminothiazol-4-yl)acetamido)-2,2-dimethyl-4-oxoazetidin-1-yl sulfate formate] | 0.7813 µM | 12.5 µM | 25 µM | 12.5 µM |  |  |  | 
C[n+]1cc(-c2ccc3c(c2)OCC(CO/N=C(\C(=O)N[C@@H]2C(=O)N(OS(=O)(=O)[O-])C2(C)C)c2csc(N)n2)C3)ccc1NCCN.O=C(O)C(F)(F)F (single isomer, unassigned) [Example 37B] | 6.25 µM | 50 µM | 25 µM | 100 µM |  |  |  | 
C[n+]1cc(-c2ccc3c(c2)CC[C@H](CO/N=C(\C(=O)N[C@@H]2C(=O)N(OS(=O)(=O)[O-])C2(C)C)c2csc(N)n2)O3)cn1CCCN [Example 11, (S)-3-((Z)-2-((((R)-6-(1-(3-aminopropyl)-2-methyl-1H-pyrazol-2-ium-4-yl)chroman-2-yl)methoxy)imino)-2-(2-aminothiazol-4-yl)acetamido)-2,2-dimethyl-4-oxoazetidin-1-yl sulfate] | 0.7813 µM | 3.125 µM | 3.125 µM | 6.25 µM |  |  |  | 
CC1(C)[C@H](NC(=O)/C(=N\O[C@](C)(C(=O)O)[C@H]2CCc3cc(-c4cnc(NC[C@H](O)CN)[n+](CC5CNC5)c4)ccc3O2)c2csc(N)n2)C(=O)N1OS(=O)(=O)[O-].O=CO [Example 19, (S)-3-((Z)-2-(((S)-1-((R)-6-(2-(((R)-3-amino-2-hydroxy-propyl)amino)-1-(azetidin-1-ium-3-ylmethyl)pyrimidin-1-ium-5-yl)chroman-2-yl)-1-carboxyethoxy)imino)-2-(2-aminothiazol-4-yl)acetamido)-2,2-dimethyl-4-oxoazetidin-1-yl sulfate formate] | 0.7813 µM | 12.5 µM | 12.5 µM | 6.25 µM |  |  |  | 
C[n+]1cc(-c2ccc3c(c2)CC[C@H]([C@](C)(O/N=C(\C(=O)N[C@@H]2C(=O)N(OS(=O)(=O)[O-])C2(C)C)c2csc(N)n2)C(=O)O)O3)cnc1NC[C@H](O)CN.O=CO [Example 17, (S)-3-((Z)-2-(2-aminothiazol-4-yl)-2-(((S)-1-((R)-6-(2-(((R)-3-ammonio-2-hydroxy-propyl)amino)-1-methyl-pyrimidin-1-ium-5-yl)chroman-2-yl)-1-carboxy-ethoxy)imino)acetamido)-2,2-dimethyl-4-oxoazetidin-1-yl sulfate formate] | 0.3906 µM | 12.5 µM | 6.25 µM | 6.25 µM |  |  |  | 
CC1(C)[C@H](NC(=O)/C(=N\O[C@](C)(C(=O)O)[C@H]2CCc3cc(-c4cn(CCCN)c(=N)n4C[C@H](O)CO)ccc3O2)c2csc(N)n2)C(=O)N1OS(=O)(=O)O [Example 9, (S)-3-((Z)-2-(((S)-1-((R)-6-(1-(3-aminopropyl)-3-((S)-2,3-dihydroxypropyl)-2-imino-2,3-dihydro-1H-imidazol-4-yl)chroman-2-yl)-1-carboxyethoxy)imino)-2-(2-aminothiazol-4-yl)acetamido)-2,2-dimethyl-4-oxoazetidin-1-yl sulfate] | 0.3906 µM | 12.5 µM | 6.25 µM | 12.5 µM |  |  |  | 
C[n+]1cc(-c2ccc3c(c2)CC[C@H](CO/N=C(\C(=O)N[C@@H]2C(=O)N(OS(=O)(=O)[O-])C2(C)C)c2csc(N)n2)O3)ccc1NCCN [Example 35, mono((R)-3-((Z)-2-(2-aminothiazol-3-ium-4-yl)-2-((((R)-6-(6-((2-ammonioethyl)amino)-1-methyl-pyridin-1-ium-3-yl)chroman-2-yl)methoxy)imino)acetamido)-2,2-dimethyl-4-oxoazetidin-1-yl sulfate) mono(2,2,2-trifluoroacetate)] | 1.281 µM | 6.25 µM | 50 µM | 25 µM |  |  |  | 
CC1(C)[C@H](NC(=O)/C(=N\O[C@](C)(C(=O)O)C2CCc3cc(-c4cn(C[C@@H](O)CN)[n+](CCCN)c4)ccc3O2)c2csc(N)n2)C(=O)N1OS(=O)(=O)[O-] (mixture of isomers) [Example 5, (3 S)-3-((Z)-2-(((1 S)-1-(6-(1-((S)-3-amino-2-hydroxypropyl)-2-(3-aminopropyl)-1H-pyrazol-2-ium-4-yl)chroman-2-yl)-1-carboxyethoxy)imino)-2-(2-aminothiazol-4-yl)acetamido)-2,2-dimethyl-4-oxoazetidin-1-yl Sulfate] | 6.25 µM | 25 µM | 50 µM | 100 µM |  |  |  | 
C[n+]1cc(-c2ccc3c(c2)CC[C@H]([C@](C)(O/N=C(\C(=O)N[C@@H]2C(=O)N(OS(=O)(=O)[O-])C2(C)C)c2csc(N)n2)C(=O)O)O3)ccc1CC(CN)CN.O=CO [Example 16, (3S)-3-((Z)-2-(((1S)-1-((2R)-6-(6-(3-amino-2-(ammonio-methyl)propyl)-1-methylpyridin-1-ium-3-yl)chroman-2-yl)-1-carboxyethoxy)imino)-2-(2-aminothiazol-4-yl)acetamido)-2,2-dimethyl-4-oxoazetidin-1-yl sulfate formate] | 0.3906 µM | 3.125 µM | 3.125 µM | 6.25 µM |  |  |  | 
